Measured values taken from patent publication US20100204140A1, “USE OF A PEPTIDE AS A THERAPEUTIC AGENT” (priority 2007, published 2010).

Assays:
[1] = tested on: MRC-5 cells (human embryonal lung fibroblasts); conditions: 6 days
[2] = tested on: HIV-1IIIB in CEM-SS cells; experiment: HIV-1 antiviral assay (CPE reduction, MTS); format: cell-based; conditions: peptide 10 micrograms per ml, 6 days post-infection
CEM-SS cells = experiment: Cytotoxicity in HIV-1 assay (MTS cell viability); conditions: peptide 10 micrograms per ml
HepG2-2.2.15 cells = experiment: Cytotoxicity in HBV assay (dye uptake cell viability); format: cell-based; conditions: test peptide 10 micrograms per ml, % cell control
[3] = tested on: hepatitis B virus (HBV) ayw strain in HepG2-2.2.15 cells; experiment: HBV replication assay (secreted HBV DNA, TaqMan PCR); format: cell-based; conditions: test peptide 10 micrograms per ml; six days; HBV DNA in supernatant
Experimental: HepG2-2.2.15 is a stable cell line containing the hepatitis B virus (HBV) ayw strain genome (ATCC Cat. No. CRL-11997). Antiviral compounds blocking any late step of viral replication such as transcription, translation, pregenome encapsidation, reverse transcription, particle assembly and release can be identified and characterized using this cell line.
HepG2-2.2.15 cells were plated in 96-well microtiter plates. After 16-24 hours the confluent monolayer of HepG2-2.2.15 cells was washed and the medium was replaced with complete medium containing test peptide—10 micrograms per ml—in duplicate. […] Three days later the culture medium was replaced with fresh medium containing the peptide. Six days following the initial administration of the peptide, the cell culture supernatants was collected, treated with pronase and DNAse and then used in a real-time quantitative TaqMan PCR assay. The PCR-amplified HBV DNA was detected in real-time by monitoring increases in fluorescence signals that result from the exonucleolytic degradation of a quenched fluorescence probe molecule that hybridizes to the amplified HBV DNA. For each PCR amplification, a standard curve was simultaneously generated using dilutions of purified HBV DNA. Antiviral activity was calculated from the reduction in HBV DNA levels (% virus control). […]

[4] = Cytotoxicity in HBV assay (dye uptake cell viability); format: cell-based; conditions: human, HepG2-2.2.15 cells (stable line containing HBV ayw genome), test peptide 10 micrograms per ml, % cell control
Pseudomonas aeruginosa = format: cell-based; conditions: 5 micrograms per ml
Streptococcus pneumoniae = format: cell-based; conditions: 5 micrograms per ml
Human A549 cells = experiment: Propidium iodide cell cycle assay; format: cell-based; conditions: 24 hours, test peptide 10 micrograms per ml
[5] = tested on: Human Peripheral Blood Mononuclear Cells (PBMC), T cell proliferation; experiment: T cell proliferation assay (PHA, 3H-thymidine); format: cell-based; conditions: test peptide 10 micrograms per ml, 3 days plus 12 hours 3H-thymidine
[6] = tested on: Human Peripheral Blood Mononuclear Cells (PBMC), B cell proliferation; experiment: B cell proliferation assay (SAC plus IL-2, 3H-thymidine); format: cell-based; conditions: test peptide 10 micrograms per ml, 3 days plus 12 hours 3H-thymidine
RAW 264.7 cells = experiment: Phagocytosis assay (Fluorescein-labeled Escherichia coli); format: cell-based, mouse; conditions: test peptide 10 micrograms per ml
[7] = tested on: spleen cells of Ovalbumin-immunized Balb/c mice; experiment: Th1/Th2 cytokine profiling assay; format: cell-based, mouse; conditions: test peptide 10 micrograms per ml; Ovalbumin restimulation; 72 hours
[8] = tested on: TNF alpha production in PBMC-derived macrophages; experiment: TNF alpha production assay (LPS-stimulated macrophages, ELISA); format: cell-based, human; conditions: test peptide 10 micrograms per ml, lipopolysaccharide 200 ng/ml, overnight
Source text: Not stimulated macrophages served as negative background control.

[9] = tested on: Primary Human endothelial cells (HUVEC); experiment: Endothelial cell migration assay; format: cell-based; conditions: test peptide 10 micrograms per ml, 22 hours
HUVEC = experiment: Endothelial tube formation assay; format: cell-based, human; conditions: test peptide 10 micrograms per ml, 20 hours
Source text: Positive control was vehicle only.

MRSA = conditions: 5 micrograms per ml
in vitro [10] = conditions: human, CEM-SS cells
in vitro [11] = conditions: human, MRC-5 cells (human embryonal lung fibroblasts)
[12] = tested on: HCMV strain AD169 in MRC-5 cells; experiment: HCMV plaque reduction assay; conditions: HCMV AD169 in MRC-5 cells; peptide 10 micrograms per ml; 7-10 days

Nc1nc(O)c2ncn(COC(CO)CO)c2n1 [Ganciclovir]
% Cell viability [1]: 100%

Cc1cn([C@H]2C[C@H](N=[N+]=[N-])[C@@H](CO)O2)c(=O)[nH]c1=O [AZT, reference compound]
% CPE reduction in HIV-1 infected CEM-SS cells [2]: 99%
% Cell viability (CEM-SS cells): 97%

Nc1ccn([C@@H]2CS[C@H](CO)O2)c(=O)n1 [Compound 3TC, reference compound]
% Cell viability (HepG2-2.2.15 cells): 95.8%

CSCC[C@H](NC(=O)[C@H](CC(C)C)NC(=O)CNC(=O)[C@@H](NC(=O)[C@H](Cc1ccccc1)NC(=O)[C@H](Cc1ccccc1)NC(=O)[C@H](CC(=O)O)NC(=O)[C@H](Cc1c[nH]cn1)NC(=O)[C@H](CCSC)NC(=O)[C@@H](N)CC(=O)O)C(C)C)C(N)=O [Neurokinin B]
% CPE reduction in HIV-1 infected CEM-SS cells [2]: 0.0%
% inhibition of HBV replication in HEP G2 cells [3]: 78.5%
viability at 144 h, 10 micrograms per ml [4]: 96.1%
% inhibition (Pseudomonas aeruginosa): 0.0%
% inhibition (Streptococcus pneumoniae): 0.0%
Cell cycle analysis G0/G1 (Human A549 cells): 53.0
Cell cycle analysis G2/M (Human A549 cells): 14.8
Cell cycle analysis S (Human A549 cells): 32.2
% of PHA induced control [5]: 88.1%
% of SAC/IL2 induced control [6]: 115.1%
% of control phagocytosis (RAW 264.7 cells): 105.9%
IFNγ spleen cells; TH1 response (% of control) [7]: 126.8 % of control
IL-2 spleen cells (% of control) [7]: 198.0 % of control
IL-4 spleen cells; TH2 response (% of control) [7]: 103.5 % of control
IL-5 spleen cells; TH2 response (% of control) [7]: 99.2 % of control
TNF-a spleen cells; TH1 response (% of control) [7]: 151.0 % of control
% of LPS induction [8]: 115.9%
% inhibition of migration [9]: −2%
% inhibition of tube formation (HUVEC): 14%
% inhibition (MRSA): 0.0%
viability at 10 micrograms per ml (in vitro [10]): 98.5%
viability at 144 h (in vitro [11]): 100%
% plaque reduction [12]: 3.2%
